Reference: the NIST ThermoML archive (doi:10.1016/j.fluid.2014.07.021)
± gives the expanded uncertainty stated by the source.

Details: Crystal; DTA

Normal melting temperature [°C]	SMILES
64 ± 2	CCCCCCCCCCCCCCCCCCCCO [1-eicosanol]
38 ± 2	CCCCCCCCCCCCCCO [1-tetradecanol]
